Source: article PMC10584170, “Machine learning-based phenotypic imaging to characterise the targetable biology of Plasmodium falciparum male gametocytes for the development of transmission-blocking antimalarials” (PLOS Pathogens, 2023)

Key:
[1] = system: P. falciparum female gametocytes; experiment: P. falciparum Dual Gamete Formation Assay (PfDGFA), female readout (Pfs25-positive female gametes); type: cell-based, Plasmodium falciparum NF54; conditions: for % inhibition female (individual replicates) R1: replicate R1; for % inhibition female (individual replicates) R3: replicate R3; for % inhibition female (individual replicates) R4: replicate R4; for Average inhibition female (%): average of replicates
Method in brief: (§1)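 Male and female gamete formation were quantified by microscopy image analysis following 24 h incubation of mature NF54 gametocytes with compound and activation at 28°C with xanthurenic acid.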

[2] = system: P. falciparum male gametocytes; experiment: P. falciparum Dual Gamete Formation Assay (PfDGFA), male readout (exflagellation); type: cell-based, Plasmodium falciparum NF54; conditions: for % inhibition male (individual replicates) R1: replicate R1; for % inhibition male (individual replicates) R4: replicate R4; for Average inhibition male (%): average of replicates; for % inhibition male (individual replicates) R3: replicate R3; for Activity: hit = >50% inhibition in male or female readout in at least 3 replicates, 0 = no class assigned
Method in brief: as §1

[3] = PfDGFA at 2µM, 24h preincubation with gametocytes prior to induction of gametogenesis
[4] = PfDGFA at 2µM, 24h preincubation
[5] = 2µM, 24h preincubation with gametocytes prior to induction of gametogenesis
[6] = 2µM, 24h preincubation, hits selected on >50% inhibition in the female readout across replicates
[7] = 2µM, 24h preincubation, hits selected on >50% inhibition in the male readout across replicates
[8] = PfDGFA at 2µM, 24h preincubation with gametocytes
[9] = number of replicates with >50% inhibition in the female readout, 2µM
[10] = number of replicates with >50% inhibition in the male readout, 2µM
[11] = 2µM, 24h preincubation, number of replicates with >50% inhibition in the female readout
[12] = 2µM, 24h preincubation, number of replicates with >50% inhibition in the male readout

Compound	Average inhibition female (%) [1, 5]	% inhibition female (individual replicates) R1 [1, 5]	% inhibition female (individual replicates) R3 [1, 5]	% inhibition female (individual replicates) R4 [1, 5]	HitlevelF [1, 6]	Average inhibition male (%) [2, 5]	% inhibition male (individual replicates) R1 [2, 5]	% inhibition male (individual replicates) R3 [2, 5]	% inhibition male (individual replicates) R4 [2, 5]	HitlevelM [2, 7]	Activity [2, 4]	further results
CNCCNCc1ccc(-c2cccc(-c3nc4cc(F)ccc4[nH]3)c2)cc1.O=C(O)C(F)(F)F [TCMDC-132836]												% inhibition female (individual replicates) R1 [1, 3]: -0.65%; % inhibition female (individual replicates) R3 [1, 3]: 8.4%; % inhibition female (individual replicates) R4 [1, 3]: 2.6%; Average inhibition female (%) [1, 4]: 2.2%; % inhibition male (individual replicates) R1 [2, 3]: -5.6%; % inhibition male (individual replicates) R4 [2, 3]: -19.2%; Average inhibition male (%) [2, 4]: -13.9%
O=C(O)C(F)(F)F.c1cc(CNCCN2CCNCC2)cc(-c2cccc(-c3nc4ccccc4[nH]3)c2)c1 [TCMDC-132859]	17.2%	18.5%	-13.9%	47.2%	0	12.0%	10.9%	-9.7%	24.9%	0	0	
Fc1ccc2[nH]c(-c3cccc(-c4cccc(CNCCN5CCNCC5)c4)c3)nc2c1.O=C(O)C(F)(F)F [TCMDC-132860]												Average inhibition female (%) [1, 8]: -9.5%; % inhibition female (individual replicates) R1 [1, 8]: 8.6%; % inhibition female (individual replicates) R3 [1, 8]: -31.9%; % inhibition female (individual replicates) R4 [1, 8]: -13.7%; HitlevelF [1, 9]: 0; Average inhibition male (%) [2, 8]: 74.7%; % inhibition male (individual replicates) R1 [2, 8]: 80.2%; % inhibition male (individual replicates) R3 [2, 8]: 48.0%; % inhibition male (individual replicates) R4 [2, 8]: 89.6%; HitlevelM [2, 10]: 3
O=C(O)C(F)(F)F.c1cc(CNCCN2CCNCC2)cc(-c2ccc(-c3nc4ccccc4[nH]3)cc2)c1 [TCMDC-132861]												% inhibition female (individual replicates) R1 [1, 3]: -3.1%; % inhibition female (individual replicates) R3 [1, 3]: -9.9%; % inhibition female (individual replicates) R4 [1, 3]: 9.1%; Average inhibition female (%) [1, 4]: 1.2%; % inhibition male (individual replicates) R1 [2, 3]: -18.7%; % inhibition male (individual replicates) R4 [2, 3]: -15.3%; Average inhibition male (%) [2, 4]: -11.2%
FC(F)(F)c1ccc2[nH]c(-c3ccc(-c4ccc(CNCCN5CCNCC5)cc4)s3)nc2c1.O=C(O)C(F)(F)F [TCMDC-132862]	20.7%	21.1%	13.2%	20.9%		44.8%	46.6%	56.6%	89.1%			HitlevelF [1, 11]: 0; HitlevelM [2, 12]: 2
Fc1ccc2[nH]c(-c3cccc(-c4ccc(CNCCN5CCNCC5)cc4)c3)nc2c1.O=C(O)C(F)(F)F [TCMDC-132863]	14.3%	16.6%	-21.5%	42.6%	0	43.0%	23.0%	12.3%	70.2%	2	0	
Cc1cccc2nc(-c3cccc(-c4cccc(CNCCN5CCNCC5)c4)c3)[nH]c12.O=C(O)C(F)(F)F [TCMDC-132873]	9.7%	14.0%	9.9%	0.33%	0	29.1%	24.4%	9.9%	46.2%	0	0	
CN(c1ncc(-c2cccc(CNCc3ccccc3O)c2)cn1)C1CCCCC1 [TCMDC-133137]												% inhibition female (individual replicates) R1 [1, 3]: 2.5%; % inhibition female (individual replicates) R3 [1, 3]: -2.1%; % inhibition female (individual replicates) R4 [1, 3]: 17.4%; Average inhibition female (%) [1, 4]: 2.8%; % inhibition male (individual replicates) R1 [2, 3]: -18.7%; % inhibition male (individual replicates) R4 [2, 3]: -25.6%; Average inhibition male (%) [2, 4]: -17.4%
Cl.c1cc(CNC2Cc3ccccc3C2)cc(-c2cnc(N3CCNCC3)nc2)c1 [TCMDC-133140]	27.8%	25.6%	8.0%	43.1%		40.3%	37.9%	14.1%	54.9%			HitlevelF [1, 11]: 0; HitlevelM [2, 12]: 2
CN1CCCC1CCNCc1cccc(-c2cnc(N(C)C3CCCCC3)nc2)c1 (stereo not drawn) [TCMDC-133141]												Average inhibition female (%) [1, 8]: 34.0%; % inhibition female (individual replicates) R1 [1, 8]: 30.5%; % inhibition female (individual replicates) R3 [1, 8]: 11.1%; % inhibition female (individual replicates) R4 [1, 8]: 42.8%; HitlevelF [1, 9]: 1; Average inhibition male (%) [2, 8]: 74.0%; % inhibition male (individual replicates) R1 [2, 8]: 71.5%; % inhibition male (individual replicates) R3 [2, 8]: 68.9%; % inhibition male (individual replicates) R4 [2, 8]: 81.6%; HitlevelM [2, 10]: 4
CCCN(CC1CC1)c1ncc(-c2cccc(CNCCC3CCCN3C)c2)cn1 (stereo not drawn) [TCMDC-133142]	16.5%	26.9%	12.7%	-0.1%	0	41.7%	43.1%	28.4%	53.6%	1	0	
